The source of these data is PubChem BioAssay AID328 (DTP/NCI, 2004).

The subject of the assay is BDF1 mice, P388 leukemia ip, median survival T/C. Description: NCI In Vivo Anticancer Drug Screen. Data for tumor model P388 Leukemia (intraperitoneal) in B6D2F1 (BDF1) mice. The following applies: endpoint: median survival time, higher = longer survival. In short, it runs like this:
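Read-out is survival of treated animals expressed relative to the vehicle group, as a T/C ratio.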

[1] abbreviates: dose: 100.0 mg/kg/injection, schedule: Q01DX009 (ip), vehicle: Klucel (hydroxypropylcellulose) (HPC).
[2] abbreviates: dose: 200.0 mg/kg/injection, schedule: Q01DX009 (ip), vehicle: Klucel (hydroxypropylcellulose) (HPC).
The mark [3] stands for this setting: dose: 12.5 mg/kg/injection, schedule: Q01DX009 (ip), vehicle: saline with Tween-80.
[4] abbreviates: dose: 25.0 mg/kg/injection, schedule: Q01DX009 (ip), vehicle: saline with Tween-80.
[5] abbreviates: dose: 50.0 mg/kg/injection, schedule: Q01DX009 (ip), vehicle: saline with Tween-80.
[6] abbreviates: dose: 50.0 mg/kg/injection, schedule: Q01DX009 (ip), vehicle: Klucel (hydroxypropylcellulose) (HPC).
Where [7] appears, read: dose: 50.0 mg/kg/injection, schedule: Q04DX003 (ip), vehicle: water.
Setting [8] is: dose: 100.0 mg/kg/injection, schedule: Q01DX009 (ip), vehicle: saline with Tween-80.
Setting [9] is: dose: 200.0 mg/kg/injection, schedule: Q01DX009 (ip), vehicle: saline with Tween-80.

Values joined by “and” are separate entries in the source; they are usually repeats but may differ in a detail not shown here. Identical values can stand only once. Inconclusive results and toxic doses are left out.

Regarding `CCC1=CCN2CCC34c5cc(C6(C(=O)OC)CC7CC(CC)CN(CCc8c6[nH]c6ccccc86)C7)c(OC)cc5N(C)C3C(O)(C(=O)OC)C(OC(C)=O)C1C24` (stereo not drawn), the T/C was 100 % of control (dose: 0.03 mg/kg/injection, schedule: Q01DX010 (ip), vehicle: saline); 104 % of control (dose: 0.06 mg/kg/injection, schedule: Q01DX010 (ip), vehicle: saline); 95 % of control (dose: 0.13 mg/kg/injection, schedule: Q01DX010 (ip), vehicle: saline); 100 % of control (dose: 0.25 mg/kg/injection, schedule: Q01DX010 (ip), vehicle: saline); 86 % of control (dose: 0.5 mg/kg/injection, schedule: Q01DX010 (ip), vehicle: saline).
Regarding `Nc1ccc(C(=O)O)cn1`, the T/C is 105 % of control (dose: 20.0 mg/kg/injection, schedule: Q01DX009 (ip), vehicle: saline); 98 % of control (dose: 40.0 mg/kg/injection, schedule: Q01DX009 (ip), vehicle: saline); 110 % of control (dose: 80.0 mg/kg/injection, schedule: Q01DX009 (ip), vehicle: saline).
Turning to `CC(C)CCCc1c[nH]c(=O)[nH]c1=O`, the T/C is 90 % of control (dose: 100.0 mg/kg/injection, schedule: Q01DX001 (ip), vehicle: Klucel (hydroxypropylcellulose) (HPC)); 86 % of control under setting [1]; 90 % of control (dose: 200.0 mg/kg/injection, schedule: Q01DX001 (ip), vehicle: Klucel (hydroxypropylcellulose) (HPC)); 86 % of control under setting [2]; 90 % of control (dose: 400.0 mg/kg/injection, schedule: Q01DX001 (ip), vehicle: Klucel (hydroxypropylcellulose) (HPC)); 91 % of control (dose: 400.0 mg/kg/injection, schedule: Q01DX009 (ip), vehicle: Klucel (hydroxypropylcellulose) (HPC)).
In the case of `CC(=O)OC1C=CCC2C(=O)C3=C(C(=O)c4ccccc4C3=O)C(=O)C12` (stereo not drawn), the T/C was 98 % of control (dose: 3.12 mg/kg/injection, schedule: Q01DX009 (ip), vehicle: saline with Tween-80); 98 % of control (dose: 6.25 mg/kg/injection, schedule: Q01DX009 (ip), vehicle: saline with Tween-80); 107 % of control under setting [3]; 112 % of control under setting [4]; 112 % of control under setting [5].
On to `[Cl][Pt+2]([Cl])([Cl])[Cl].c1ccc(C2CC[N-]CC2)cc1.c1ccc(C2CC[N-]CC2)cc1`, for which the T/C was 121 % of control (dose: 25.0 mg/kg/injection, schedule: Q01DX009 (ip), vehicle: Klucel (hydroxypropylcellulose) (HPC)); 103 % of control and 122 % of control (dose: 25.0 mg/kg/injection, schedule: Q01DX009 (ip), vehicle: water); 112 % of control under setting [6]; 112 % of control (dose: 50.0 mg/kg/injection, schedule: Q01DX009 (ip), vehicle: water); 109 % of control under setting [7]; 121 % of control under setting [1]. Further, the T/C reads like this: (dose: 100.0 mg/kg/injection, schedule: Q01DX009 (ip), vehicle: water) 90 % of control; (dose: 100.0 mg/kg/injection, schedule: Q04DX003 (ip), vehicle: water) 105 % of control; (dose: 200.0 mg/kg/injection, schedule: Q04DX003 (ip), vehicle: water) 98 % of control; (dose: 400.0 mg/kg/injection, schedule: Q04DX003 (ip), vehicle: water) 89 % of control.
In the case of `O=C(Nc1ccc(C2=NCCN2)cc1)c1ccc(C(=O)Nc2ccc(C3=NCCN3)cc2)c([N+](=O)[O-])c1`, the T/C is 163 % of control (dose: 6.0 mg/kg/injection, schedule: Q01DX010 (ip), vehicle: saline); 168 % of control (dose: 8.0 mg/kg/injection, schedule: Q01DX010 (ip), vehicle: saline); 113 % of control (dose: 12.0 mg/kg/injection, schedule: Q01DX010 (ip), vehicle: saline).
Take `[I][Hg][CH2]C1OCCOC1[CH2][Hg][I]` (stereo not drawn): the T/C was 116 % of control under setting [8] and 116 % of control under setting [9].
For the compound `C1CC[N-]CC1.C1CC[N-]CC1.[Co].[N-]=C=S.[N-]=C=S`, under “dose: 100.0 mg/kg/injection, schedule: Q01DX001 (ip), vehicle: saline with Tween-80”, the T/C was 99 % of control.
Regarding `NC(COC(c1ccccc1)(c1ccccc1)c1ccccc1)C(=O)O` (stereo not drawn), the T/C reads like this: under setting [6], 120 % of control; (dose: 65.0 mg/kg/injection, schedule: Q01DX009 (ip), vehicle: Klucel (hydroxypropylcellulose) (HPC)) 150 % of control; (dose: 85.0 mg/kg/injection, schedule: Q04DX003 (ip), vehicle: other) 120 % of control; under setting [1], 155 % of control and 160 % of control; (dose: 100.0 mg/kg/injection, schedule: Q04DX003 (ip), vehicle: saline) 122 % of control; (dose: 150.0 mg/kg/injection, schedule: Q01DX009 (ip), vehicle: Klucel (hydroxypropylcellulose) (HPC)) 205 % of control. The T/C by setting is: under setting [2], 90 % of control; (dose: 200.0 mg/kg/injection, schedule: Q04DX003 (ip), vehicle: other) 150 % of control; (dose: 300.0 mg/kg/injection, schedule: Q04DX003 (ip), vehicle: other) 200 % of control.
Turning to `Cc1cccc(NC(=O)c2ccccc2)n1`, the T/C by setting is: under setting [3], 91 % of control; under setting [4], 91 % of control; under setting [5], 104 % of control.
As to `N#Cc1cc2c3c(c1)CCCN3CCC2`, the T/C was 100 % of control (dose: 40.0 mg/kg/injection, schedule: Q01DX001 (ip), vehicle: saline with Tween-80); 95 % of control (dose: 80.0 mg/kg/injection, schedule: Q01DX001 (ip), vehicle: saline with Tween-80); 109 % of control (dose: 160.0 mg/kg/injection, schedule: Q01DX001 (ip), vehicle: saline with Tween-80).
Consider `O=C1/C(=N/O)Cc2ccccc21`, for which the T/C by setting is: (dose: 0.1 mg/kg/injection, schedule: Q01DX009 (ip), vehicle: water) 101 % of control; (dose: 0.2 mg/kg/injection, schedule: Q01DX009 (ip), vehicle: water) 103 % of control and 108 % of control; (dose: 0.8 mg/kg/injection, schedule: Q01DX009 (ip), vehicle: water) 106 % of control; (dose: 1.2 mg/kg/injection, schedule: Q01DX009 (ip), vehicle: water) 108 % of control; (dose: 2.4 mg/kg/injection, schedule: Q01DX009 (ip), vehicle: water) 96 % of control; (dose: 3.12 mg/kg/injection, schedule: Q04DX003 (ip), vehicle: water) 106 % of control. In addition, the T/C runs as follows: (dose: 6.25 mg/kg/injection, schedule: Q04DX003 (ip), vehicle: water) 97 % of control; (dose: 12.5 mg/kg/injection, schedule: Q04DX003 (ip), vehicle: water) 115 % of control; (dose: 25.0 mg/kg/injection, schedule: Q04DX003 (ip), vehicle: water) 104 % of control; under setting [7], 106 % of control.
As to `O=C(/C=C/c1ccc(OCc2ccccc2)cc1)c1ccc(Cl)c(Cl)c1Cl`, the T/C is, setting by setting: under setting [5], 98 % of control; under setting [8], 90 % of control; under setting [9], 89 % of control.
Take `Nc1ncc2[nH]c(C(F)(F)F)nc2n1`: the T/C by setting is: under setting [5], 102 % of control; under setting [8], 102 % of control; under setting [9], 105 % of control; (dose: 400.0 mg/kg/injection, schedule: Q01DX009 (ip), vehicle: saline with Tween-80) 117 % of control.
As to `COC(=O)/C=C(\C)Oc1cc(Cl)c(Cl)cc1Cl`, the T/C by setting is: under setting [4], 90 % of control; under setting [5], 100 % of control; under setting [8], 100 % of control; (dose: 100.0 mg/kg/injection, schedule: Q04DX003 (ip), vehicle: saline with Tween-80) 109 % of control; (dose: 200.0 mg/kg/injection, schedule: Q04DX003 (ip), vehicle: saline with Tween-80) 100 % of control; (dose: 400.0 mg/kg/injection, schedule: Q04DX003 (ip), vehicle: saline with Tween-80) 95 % of control.
Turning to `BrC1C2CCC(CC2)C1Br` (stereo not drawn), the T/C under setting [1] was 100 % of control; the T/C (dose: 100.0 mg/kg/injection, schedule: Q04DX003 (ip), vehicle: Klucel (hydroxypropylcellulose) (HPC)) is 95 % of control; the T/C under setting [2] is 104 % of control; the T/C (dose: 200.0 mg/kg/injection, schedule: Q04DX003 (ip), vehicle: Klucel (hydroxypropylcellulose) (HPC)) was 95 % of control; the T/C (dose: 400.0 mg/kg/injection, schedule: Q04DX003 (ip), vehicle: Klucel (hydroxypropylcellulose) (HPC)) is 91 % of control.
